± gives the expanded uncertainty stated by the source.
Conditions: Liquid, Ebulliometric method (Recirculating still)

- vapor or sublimation pressure (295.25 K): 10 ± 0.3 kPa
- vapor or sublimation pressure (295.4 K): 10 ± 0.3 kPa
Compound: CC#N [acetonitrile]
